Results as given in patent US20020155172A1, “Methods and compounds for decreasing cell toxicity or death” (priority 2000, published 2002).

How the values were obtained:
[1] = test system: Q79-Q79 interaction (Q79-ECFP/EYFP-Q79); assay: FRET-Q79 assay; format: biochemical; conditions: aggregates treated with 100 Congo red; 488 nm excitation, 527 nm emission
Excerpt: To rule out the possibility that Congo red merely disrupts large polyglutamine aggregates without affecting oligomeric polyglutamine interaction that may be invisible to fluorescence microscopy, we designed a FRET-Q79 assay. In this assay, the expression constructs EYFP-Q79 (enhanced yellow fluorescent protein fused to a polypeptide containing 79 polyglutamines) and Q79-ECFP (enhanced cyan fluorescent protein fused to a polypeptide containing 79 polyglutamines) were co-transfected into HeLa cells. The EYFP-HAQ79 was made by ligation of a SacI/Notl digested insert from HA-Q79 CMX (Sanchez et al., 1999, supra) into the plasmid CFP-C1, described by Sanchez et al. (supra) after Sac1 digestion and blunting. […]
The lysates were passed through a needle to ensure release of polyglutamine inclusions from the nuclei. […] The fluorescence resonance energy transfer (FRET) was determined from polyglutamine oligomers formed in Q79-ECFP/EYFP-Q79 expressing cells upon addition of PBS or Congo red. Specifically, the interaction of the tagged Q79 polypeptides was detected by immunofluorescence at 488 nm excitation and 527 nm emission for FRET using a Wallach plate reader, and the ratio of the immunofluorescence was determined. Immunofluorescence levels were also detected for each ECFP and EYFP independent of the effect of Congo red on fluorescence emission wavelengths.

[2] = test system: HeLa cells transfected with Q79-GFP; assay: Cellular ATP levels (ATPLite) in Q79 expressing HeLa cells; format: cell-based
Method: We also investigated whether Congo red prevented other cellular events during cell death, including ATP depletion, caspase activation, and protein synthesis inhibition. HeLa cells were transfected with the Q79-GFP construct. Forty-eight hours later, the viability of cells expressing expanded polyglutamine repeats was determined by measuring cellular ATP levels, suing an ATPLite™ kit, according to the directions provided by the manufacturer (Packard, Co.) (FIG. 5A).
To determine the effect of Congo red (100 μM) on polyglutamine-induced cell toxicity. HeLa cells were transiently transfected with Q79-GFP, and six hours later were administered various concentrations of Congo red. Cell viability was assayed 72 hours after transfection, by measuring the level of ATP in each sample. ATP levels in cells expressing Q79 were determined by using the ATPLite™ kit as recommended by the manufacturer (Packard, Inc.). Briefly, cells were transfected with Q79 and treated 6 hours after transfection. Forty-two hours later, the levels of ATP were determined. (FIG. 5C).
A high-throughput method for identifying compounds that decrease cell toxicity or death has been designed. In this method, cells were seeded at 2×10^5 cells in 100 mm dishes. The next day the plated cells were transiently transfected with a plasmid encoding an expanded polyglutamine repeat, for example, Q79. Three hours later, transfection efficiency was assessed. Plates containing cells having 10-20% transfection efficiency at this 3 hour time point were trypsinized and re-plated at 600 or at 1500 cells per well in 384 well plates with clear bottoms. After 6 hours, the candidate compounds were added to the multi-well plates. The cells were cultured for 48 hours and ATP levels were determined using an ATPLite™ kit. Data was then expressed in either arbitrary units, or as relative ratio of ATP levels in Q79 transfected cells in compound-treated relative to vehicle-treated samples.
Derivatives of Congo red (commercially available from Sigma/Aldrich) were tested for their ability to alter cell toxicity and death by measuring ATP depletion and luciferase expression. The assay was carried out as described above for the high-throughput identification of compounds. Briefly, HeLa cells were transiently transfected with a Q79/GFP plasmid and were subsequently treated with various concentrations of Congo red, or 25 μM of each of Direct Orange 6, Direct Red 1, Direct Orange 1, Direct Black 51, Direct Orange 8, Direct Yellow 26, Direct Yellow 28, or Direct Blue 158. Drug treatment continued for 6 hours and then 48 hours later, ATP levels were measured in these cells and compared to the ATP levels in cells that were transiently transfected with GFP only, and also received the compound.

[3] = test system: HeLa cells transfected with a Q79-GFP construct; assay: Polyglutamine-induced cell death in HeLa cells; format: cell-based
Method: FIG. 4A is two graphs showing the effect of Congo red, tetracyclines, and sulfated polyanions on polyglutamine-induced cell death in, each graph representing a separate experiment. HeLa cells transfected with a Q79-GFP construct were treated with 100 μM of minocycline (mino), Chrysamine G (CG), Rolitetracycline (Ro), iota carrageenan (iota), dextran 500 (dextran), or Congo red (CR), six hours after transfection. The amount of cell death was determined 48 hours after transfection by morphological criteria as previously described (Sanchez et al., supra).
In a cell expressing Q79-GFP polypeptides, polyglutamine aggregates are formed and the cell dies by apoptosis (Sanchez, supra). Cell viability was determined by morphological criteria characteristic of apoptosis, including cell blebbing, shrinking. Total cell lysates and tissue homogenates were obtained using Buffer A: 1% triton in PBS, containing 10 μg/ml DNAse and protease inhibitors; leupeptin 20 μg/ml, aprotinin 20 u/ml, and PMSF 100 mM. The proteins were separated by 12% SDS/PAGE and transferred to PVDF Immobilon membrane (Millipore, Inc). Antibodies used included rabbit polyclonal antibodies; EM48 (Li et al., Mol. Neurobiol. 20:111-124, 2000) anti-heat shock proteins 40 and 70 (Stressgen, Co.), and rat monoclonal anti-caspase-8 antibody.
These effects were determined by visual inspection of GFP-positive cells under an inverted fluorescence microscope. In addition, the occurrence of apoptosis of these transfected cell samples was confirmed by staining the cells with trypan blue, propidium iodide, or Hoescht 33342 to examine the cellular or nuclear morphology.
Compounds that disrupt other types of aggregates, for example, amyloid fibril aggregates were tested for their ability to disrupt pre-formed polyglutamine aggregates. HeLa Cells were transfected with a Q79-GFP construct. Six hours later, Iota-carrageenan, dextran, minocycline, rolitetracycline, and Chrysamine G (1 nM to 100 μM) were each incubated with the cells. Seventy-two hours post-transfection, the cells were evaluated for the occurrence of cell death, by visual inspection under an inverted fluorescence microscope.

[4] = HA-tagged Q79-GFP, caspase-8 experiment

In the case of `Nc1c(/N=N/c2ccc(-c3ccc(/N=N/c4cc(S(=O)(=O)O)c5ccccc5c4N)cc3)cc2)cc(S(=O)(=O)O)c2ccccc12` [Congo red, diphenyldiazo-bis-alpha-napthylaminesulfonate], the FRET ratio [1] is reported as “significantly reduced”, the “protection from polyglutamine repeat-induced cell death (ATP levels)” value ([2]; 25 or 50 μM, Q79-GFP) is reported as “very effective at protecting cells” and the ATP loss [2, 4] is reported as “significantly inhibited ATP loss”. For the same molecule, the “concentration at which protection from polyglutamine repeat-induced cell death begins (ATP levels)” value ([2]; Q79-GFP, treated six hours after transfection) was 12 µM, the “cell death, as indicated by morphology” value [3, 4] was “significantly inhibited ATP loss and cell death” and the “Polyglutamine-induced Cell Death” value ([3]; Q79-GFP, compound added six hours after transfection, 1 nM to 100 μM (FIG. 4A: 100 μM), seventy-two hours post-transfection) was “+ (Each + indicates approximately 20% cell death.)”.
